Results from article PMC11064632, “Tetracyclic homoisoflavanoid (+)-brazilin: a natural product inhibits c-di-AMP-producing enzyme and Streptococcus mutans biofilms” (Microbiology Spectrum, 2024).
Where a name gives a salt, the structure may show the parent alone.

What was measured:
[1] = biological target: T1, smDAC (S. mutans diadenylate cyclase, CdaA/DacA family) (Streptococcus mutans, UniProt Q8DTC4); experiment: intrinsic tyrosine fluorescence quenching (modified Stern-Volmer); supported by HPLC enzyme inhibition, IC50 […], Ki […]; assay type: binding
T1 construct: recombinant smDAC (from 116aa to 265aa)

[2] = biological target: T1, smDAC (S. mutans diadenylate cyclase, CdaA/DacA family); experiment: biochemical; set-up: HPLC quantification of conversion of ATP into c-di-AMP by recombinant smDAC; settings: read-out: Normalized Enzymatic Inhibition (%)
Procedure: Eleven “hits” were validated using HPLC to eliminate false positives from the coralyne assay. […] (+)-Brazilin (NSC 8661), showing the greatest inhibitory activity, was further studied in a dose-dependent manner. Representative chromatograms of ATP (100 µM) and c-di-AMP (50 µM) standards were used as references to validate retention times (Fig. 3A and B). […] Representative chromatograms of HPLC reactions treated with dose-dependent concentrations were also obtained (Fig. S5). Excitingly, (+)-brazilin inhibited the conversion of ATP into c-di-AMP in a dose-dependent manner with an IC50 value of 25.1 ± 0.98 µM (Fig. 3H; Table S1). […] HPLC was also used to evaluate and compare bromophenol thiohydantoin, suramin, and tannic acid, all reported tmDisA inhibitors, to brazilin and 10% DMSO negative control.

[3] = tested on: Nc1ncnc2c1ncn2[C@@H]1O[C@H](COP(=O)(O)OP(=O)(O)OP(=O)(O)O)[C@@H](O)[C@H]1O; experiment: purified protein; settings: Mn2+ substrate-binding site

T1 sequence (Q8DTC4 entry or part of it): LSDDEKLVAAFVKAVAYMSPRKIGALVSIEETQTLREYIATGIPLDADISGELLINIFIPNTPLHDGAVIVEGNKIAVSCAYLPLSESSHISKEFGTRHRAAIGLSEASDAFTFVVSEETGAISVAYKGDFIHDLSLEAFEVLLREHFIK

Row | Molecule | inhibition at 50 µM [2] [%] | also measured
1 | Oc1ccc2c(c1)OC[C@]1(O)Cc3cc(O)c(O)cc3[C@H]21 [NSC 8661, (+)-brazilin] | 77.8 | Kd [1]: 11.9 µM; inhibition at 100 µM [2]: 87.1%
2 | O=C1NC(=S)N/C1=C\c1cc(Br)cc(Br)c1O [bromophenol thiohydantoin] | 3.7 | –
3 | Cc1ccc(C(=O)Nc2ccc(S(=O)(=O)O)c3cc(S(=O)(=O)O)cc(S(=O)(=O)O)c23)cc1NC(=O)c1cccc(NC(=O)Nc2cccc(C(=O)Nc3cc(C(=O)Nc4ccc(S(=O)(=O)O)c5cc(S(=O)(=O)O)cc(S(=O)(=O)O)c45)ccc3C)c2)c1 [suramin hexasodium salt] | 1.2 | –
4 | O=C(OC[C@H]1O[C@@H](OC(=O)c2cc(O)c(O)c(OC(=O)c3cc(O)c(O)c(O)c3)c2)[C@H](OC(=O)c2cc(O)c(O)c(OC(=O)c3cc(O)c(O)c(O)c3)c2)[C@@H](OC(=O)c2cc(O)c(O)c(OC(=O)c3cc(O)c(O)c(O)c3)c2)[C@@H]1OC(=O)c1cc(O)c(O)c(OC(=O)c2cc(O)c(O)c(O)c2)c1)c1cc(O)c(O)c(OC(=O)c2cc(O)c(O)c(O)c2)c1 [tannic acid] | 22.2 | –
5 | smDAC (S. mutans diadenylate cyclase, CdaA/DacA family) (Streptococcus mutans UA159) | – | Km [3]: 93.0 ± 3.98 µM; Vmax [3]: 5.54 µM/min
